Laboratory results: patent publication US7977322B2 (Vertex Pharmaceuticals Incorporated, priority 2004, dated 2011)

Molecular target: T1, ΔF508-CFTR (Homo sapiens, UniProt P13569, DEL508-508)
T1 construct: expressed in transfected cells
Experiment: Membrane potential optical (FRET/VIPR) assay, identification of correction compounds
Type: cell-based
Details: Table 3, assay not given; for Emax: read-out: % Activity / % Efficacy (relative efficacy)
Text: I) Membrane Potential Optical Methods for Assaying ΔF508-CFTR Modulation Properties of Compounds
These voltage sensitive assays are based on the change in fluorescence resonant energy transfer (FRET) between the membrane-soluble, voltage-sensitive dye, DiSBAC2(3), and a fluorescent phospholipid, CC2-DMPE, which is attached to the outer leaflet of the plasma membrane and acts as a FRET donor. Changes in membrane potential (Vm) cause the negatively charged DiSBAC2(3) to redistribute across the plasma membrane and the amount of energy transfer from CC2-DMPE changes accordingly. The changes in fluorescence emission were monitored using VIPR™ II, which is an integrated liquid handler and fluorescent detector designed to conduct cell-based screens in 96- or 384-well microtiter plates.
Identification of Correction Compounds
To identify small molecules that correct the trafficking defect associated with ΔF508-CFTR; a single-addition HTS assay format was developed. The cells were incubated in serum-free medium for 16 hrs at 37° C. in the presence or absence (negative control) of test compound. As a positive control, cells plated in 384-well plates were incubated for 16 hrs at 27° C. to “temperature-correct” ΔF508-CFTR. The cells were subsequently rinsed 3× with Krebs Ringers solution and loaded with the voltage-sensitive dyes. To activate ΔF508-CFTR, 10 μM forskolin and the CFTR potentiator, genistein (20 μM), were added along with Cl^− free medium to each well. The addition of Cl^− free medium promoted Cl^− efflux in response to ΔF508-CFTR activation and the resulting membrane depolarization was optically monitored using the FRET-based voltage-sensor dyes.
• Bath Solution #1: (in mM) NaCl 160, KCl 4.5, CaCl2 2, MgCl2 1, HEPES 10, pH 7.4 with NaOH. • Chloride-free bath solution: Chloride salts in Bath Solution #1 are substituted with gluconate salts. • CC2-DMPE: Prepared as a 10 mM stock solution in DMSO and stored at −20° C. • DiSBAC2(3): Prepared as a 10 mM stock in DMSO and stored at −20° C.
NIH3T3 mouse fibroblasts stably expressing ΔF508-CFTR are used for optical measurements of membrane potential. The cells are maintained at 37° C. in 5% CO2 and 90% humidity in Dulbecco's modified Eagle's medium supplemented with 2 mM glutamine, 10% fetal bovine serum, 1×NEAA, β-ME, 1×pen/strep, and 25 mM HEPES in 175 cm^2 culture flasks. For all optical assays, the cells were seeded at 30,000/well in 384-well matrigel-coated plates and cultured for 2 hrs at 37° C. before culturing at 27° C. for 24 hrs. for the potentiator assay.

T1 sequence (P13569 with tags, fused parts or gaps DEL508-508): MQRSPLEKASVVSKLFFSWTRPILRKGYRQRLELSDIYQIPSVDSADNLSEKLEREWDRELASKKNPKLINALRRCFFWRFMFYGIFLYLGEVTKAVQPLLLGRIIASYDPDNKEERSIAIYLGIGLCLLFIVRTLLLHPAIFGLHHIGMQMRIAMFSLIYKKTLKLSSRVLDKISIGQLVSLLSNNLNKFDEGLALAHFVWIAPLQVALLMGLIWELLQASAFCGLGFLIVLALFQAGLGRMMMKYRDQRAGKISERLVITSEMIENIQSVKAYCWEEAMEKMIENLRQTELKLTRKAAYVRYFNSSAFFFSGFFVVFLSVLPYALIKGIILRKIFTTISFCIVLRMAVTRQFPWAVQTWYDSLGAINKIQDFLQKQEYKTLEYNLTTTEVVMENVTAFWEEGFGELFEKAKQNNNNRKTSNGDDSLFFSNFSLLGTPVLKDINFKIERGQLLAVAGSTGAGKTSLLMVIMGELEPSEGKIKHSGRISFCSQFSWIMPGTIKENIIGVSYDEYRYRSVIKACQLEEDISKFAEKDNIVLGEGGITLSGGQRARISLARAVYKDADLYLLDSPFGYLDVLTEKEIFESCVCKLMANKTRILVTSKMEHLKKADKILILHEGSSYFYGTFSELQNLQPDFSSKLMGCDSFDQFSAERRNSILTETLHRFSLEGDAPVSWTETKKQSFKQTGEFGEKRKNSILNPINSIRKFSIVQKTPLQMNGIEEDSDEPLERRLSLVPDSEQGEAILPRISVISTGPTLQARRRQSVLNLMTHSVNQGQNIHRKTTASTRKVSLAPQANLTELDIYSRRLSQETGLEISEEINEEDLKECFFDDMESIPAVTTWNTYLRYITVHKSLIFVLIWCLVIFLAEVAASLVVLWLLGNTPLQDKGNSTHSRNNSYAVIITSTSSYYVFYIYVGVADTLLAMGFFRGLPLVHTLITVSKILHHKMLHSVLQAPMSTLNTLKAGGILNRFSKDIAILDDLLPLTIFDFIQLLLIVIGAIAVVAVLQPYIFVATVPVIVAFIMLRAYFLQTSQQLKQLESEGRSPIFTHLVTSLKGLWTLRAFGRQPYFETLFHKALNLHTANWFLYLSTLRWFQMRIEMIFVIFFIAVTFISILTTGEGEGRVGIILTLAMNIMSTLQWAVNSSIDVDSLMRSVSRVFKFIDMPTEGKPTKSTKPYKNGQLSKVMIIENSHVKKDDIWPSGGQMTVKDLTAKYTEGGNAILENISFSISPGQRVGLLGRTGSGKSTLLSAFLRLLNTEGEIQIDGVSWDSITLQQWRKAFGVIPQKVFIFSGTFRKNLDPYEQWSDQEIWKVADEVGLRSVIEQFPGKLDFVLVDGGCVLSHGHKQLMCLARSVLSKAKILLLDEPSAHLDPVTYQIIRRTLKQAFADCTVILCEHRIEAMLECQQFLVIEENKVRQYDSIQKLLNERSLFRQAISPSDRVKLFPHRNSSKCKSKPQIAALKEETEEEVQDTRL

SMILES	EC50	Emax	% Activity / % Efficacy (relative efficacy)
COc1cccc(C(c2cnc(NC(=O)C3(c4ccc5c(c4)OCO5)CC3)s2)N2CCC[C@@H]2C(N)=O)c1 (some centres unmarked) [Example 370]	< 10 µM	> 100%	–
CCC(c1cnc(NC(=O)C2(c3ccc4c(c3)OCO4)CC2)s1)N1CCCCC1 (centres unmarked) [Example 403]	10 to 25 µM	> 100%	–
O=C(Nc1ncc(Cc2cccc(F)c2Cl)s1)C1(c2ccc3c(c2)OCO3)CC1 [Example 159]	< 10 µM	–	+++ (“+++” means>100%)
O=C(Nc1ncc(C(c2ccccc2Cl)N2CC[C@@H](O)C2)s1)C1(c2ccccc2)CC1 (some centres unmarked) [Example 423]	< 10 µM	> 100%	–
COc1cccc(Cc2cnc(NC(=O)C3(c4ccc5c(c4)OCO5)CC3)s2)c1 [Example 181]	< 10 µM	–	+++ (“+++” means>100%)
COc1ccc(C2(C(=O)Nc3nc(-c4ccc(S(C)(=O)=O)cc4)cs3)CC2)cc1 [Example 125]	< 10 µM	–	+++ (“+++” means>100%)
COc1cccc(C2(C(=O)Nc3ncc(Cc4ccccc4C#N)s3)CC2)c1 [Example 69]	< 10 µM	–	+++ (“+++” means>100%)
CCC(c1ccccc1)c1nnc(NC(=O)C2(c3ccc4c(c3)OCO4)CC2)s1 (centres unmarked) [Example 301]	< 10 µM	> 100%	–
COC[C@@H]1CCCN1C(Cc1ccccc1Cl)c1cnc(NC(=O)C2(c3ccc4c(c3)OCO4)CC2)s1 (some centres unmarked) [Example 456]	< 10 µM	> 100%	–
COc1ccc(Cc2cnc(NC(=O)C3(c4ccc5c(c4)OCO5)CC3)s2)cc1 [Example 183]	< 10 µM	–	+++ (“+++” means>100%)
Cc1ccc(-c2csc(NC(=O)C3(c4ccc5c(c4)OCO5)CC3)n2)cc1 [Example 82]	< 10 µM	–	+++ (“+++” means>100%)
O=C(Nc1ncc(C(c2ccccc2Cl)N2CC[C@@H](O)C2)s1)C1(c2ccccc2C(F)(F)F)CC1 (some centres unmarked) [Example 442]	< 10 µM	25 to 100%	–
NC(=O)C1(C(=O)Nc2ncc(Cc3ccccc3Cl)s2)CC1 [Example 91]	10 to 25 µM	–	++ (“++” means between 25% to 100%)
CS(=O)(=O)c1ccc(C(c2cnc(NC(=O)C3(c4ccc5c(c4)OCO5)CC3)s2)N2CCOCC2)cc1 (centres unmarked) [Example 382]	10 to 25 µM	> 100%	–
CC(=O)NCCNC(c1cnc(NC(=O)C2(c3ccc4c(c3)OCO4)CC2)s1)c1ccccc1Cl (centres unmarked) [Example 436]	< 10 µM	> 100%	–
O=C(Nc1ncc(C(c2ccccc2)N2CC[C@@H](O)C2)s1)C1(c2ccc3c(c2)OCO3)CC1 (some centres unmarked) [Example 368]	10 to 25 µM	> 100%	–
COc1ccc(C2(C(=O)Nc3ncc(Cc4ccccc4Cl)s3)CC2)cc1OC [Example 55]	< 10 µM	–	+++ (“+++” means>100%)
O=C(Nc1ncc(C(c2ccccc2Cl)N2CC[C@@H](O)C2)s1)C1(c2ccc(C(F)(F)F)cc2)CC1 (some centres unmarked) [Example 445]	< 10 µM	> 100%	–
N#Cc1ccccc1Cc1cnc(NC(=O)C2(c3ccc4c(c3)OCO4)CC2)s1 [Example 62]	10 to 25 µM	–	++ (“++” means between 25% to 100%)
COc1ccccc1C(c1cnc(NC(=O)C2(c3ccc4c(c3)OCO4)CC2)s1)N1CCCC1 (centres unmarked) [Example 354]	< 10 µM	> 100%	–
O=C(Nc1ncc(C(NC(CO)CO)c2ccccc2Cl)s1)C1(c2ccc3c(c2)OCO3)CC1 (centres unmarked) [Example 433]	< 10 µM	> 100%	–
CCN(CC)C(c1cccc(OC)c1)c1cnc(NC(=O)C2(c3ccc4c(c3)OCO4)CC2)s1 (centres unmarked) [Example 357]	< 10 µM	> 100%	–

SMILES	EC50	Emax	% Activity / % Efficacy (relative efficacy)
NC(=O)C1CCCN1C(Cc1ccccc1Cl)c1cnc(NC(=O)C2(c3ccc4c(c3)OCO4)CC2)s1 (centres unmarked) [Example 458]	< 10 µM	> 100%	–
O=C(Nc1ncc(C(c2ccccc2Cl)N2CC[C@@H](O)C2)s1)C1(c2ccccc2Cl)CC1 (some centres unmarked) [Example 419]	< 10 µM	> 100%	–
CS(=O)(=O)c1ccc(C(c2cnc(NC(=O)C3(c4ccc5c(c4)OCO5)CC3)s2)N2CC[C@@H](O)C2)cc1 (some centres unmarked) [Example 378]	10 to 25 µM	25 to 100%	–
COc1ccc(C2(C(=O)Nc3ncc(Cc4cccnc4OC)s3)CC2)cc1 [Example 176]	< 10 µM	–	+++ (“+++” means>100%)
COc1ccccc1C(c1cnc(NC(=O)C2(c3ccc4c(c3)OCO4)CC2)s1)N1CC[C@@H](O)C1 (some centres unmarked) [Example 346]	10 to 25 µM	> 100%	–
COc1ccccc1C1(c2cnc(NC(=O)C3(c4ccc5c(c4)OCO5)CC3)s2)CC1 [Example 245]	< 10 µM	–	+++ (“+++” means>100%)
C[C@@H](O)CNC(c1cnc(NC(=O)C2(c3ccc4c(c3)OCO4)CC2)s1)c1ccccc1Cl (some centres unmarked) [Example 487]	< 10 µM	> 100%	–
COc1ccc(C2(C(=O)Nc3ncc(Cc4ccc(F)cc4F)s3)CC2)cc1 [Example 264]	< 10 µM	–	+++ (“+++” means>100%)
CC(C)[C@@H](CO)NC(c1cnc(NC(=O)C2(c3ccc4c(c3)OCO4)CC2)s1)c1ccccc1Cl (some centres unmarked) [Example 246]	< 10 µM	> 100%	–
COc1ccc(C2(C(=O)Nc3nc(-c4ccc(Cl)cc4)cs3)CC2)cc1 [Example 78]	< 10 µM	–	+++ (“+++” means>100%)
Cc1csc(NC(=O)C2(c3ccc4c(c3)OCO4)CC2)c1C(N)=O [Example 289]	< 10 µM	25 to 100%	–
COc1ccccc1Oc1cnc(NC(=O)C2(c3ccc4c(c3)OCO4)CC2)s1 [Example 94]	< 10 µM	–	+++ (“+++” means>100%)
O=C(Nc1nc(-c2ccccc2)cs1)C1(c2ccc3c(c2)OCO3)CC1 [Example 80]	< 10 µM	–	+++ (“+++” means>100%)
COc1ccc(C2(C(=O)Nc3ncc(S(=O)(=O)c4ccccc4OC)s3)CC2)cc1 [Example 88]	< 10 µM	–	+++ (“+++” means>100%)
COc1ccccc1C(c1cnc(NC(=O)C2(c3ccc4c(c3)OCO4)CC2)s1)N1CCC(O)CC1 (centres unmarked) [Example 348]	10 to 25 µM	> 100%	–
COc1ccc(C2(C(=O)Nc3cnc(Cc4ccccc4Cl)s3)CC2)cc1 [Example 270]	< 10 µM	–	++ (“++” means between 25% to 100%)
CS(=O)(=O)c1ccc(C2(C(=O)Nc3ncc(Cc4ccccc4Cl)s3)CC2)cc1 [Example 309]	< 10 µM	25 to 100%	–
O=C(Nc1nn(-c2ccccc2)cc1-c1cccs1)C1(c2ccc3c(c2)OCO3)CC1 [Example 286]	10 to 25 µM	25 to 100%	–
O=C(Nc1ncc(Oc2ccccc2Cl)s1)C1(c2ccc3c(c2)OCO3)CC1 [Example 93]	< 10 µM	–	+++ (“+++” means>100%)
CCN(CC)c1ccc(-c2csc(NC(=O)C3(c4ccc5c(c4)OCO5)CC3)n2)cc1 [Example 120]	< 10 µM	–	+++ (“+++” means>100%)
O=C(Nc1ncc(Cc2ccccc2Cl)s1)C1(c2ccc3c(c2)OCO3)CC1 [Example 56]	< 10 µM	–	++ (“++” means between 25% to 100%)
